From US20230024438A1, “INHIBITORS OF HIF-2ALPHA” (ARCUS BIOSCIENCES, INC., priority 2019, published 2023)
pIC50: −log10 of the molar value. Like-named read-outs stand apart in the source and are kept apart here.

Legend:
HIF-2α = target: T1, HIF-2α (Homo sapiens, UniProt Q99814); assay: HIF-2α Luciferase Reporter Assay; format: cell-based
T1 construct: endogenous in cells; host or cells: 786-O cells (ATCC CRL-1932) stably carrying the Cignal Lenti HIF Luc Reporter
Experimental: Stable cell lines were generated by transducing 786-O cells (ATCC, CRL-1932) with Cignal Lenti HIF Luc Reporter lentivirus (CLS-007L, Qiagen) according to the manufacturer's guidelines. In brief, 0.3×10^6 786-0 cells were transduced with lentivirus at a Multiplicity of Infection (MOI) of 25 for 24 hours. After transduction, cells were replenished with fresh RPMI 1640 Medium (Cat. No. 11875085, Thermo Fisher,) supplemented with 10% FBS (Cat. No. A3160502, Gibco), 2 mM GlutaMax (Cat. No. 35050-061, Invitrogen) and 100 units of penicillin and 100 μg of streptomycin/mL (Cat. No 15070063, Thermo Fisher) for another 24 hours. Antibiotic selection was performed in cell media containing 4 μg/mL of Puromycin. After 7 days of antibiotic selection, stable pools of surviving cells were expanded and used in a luciferase reporter assay.
On day one, 20 uL of HIF-Luc-786-0 cells in OptiMem (Cat. No. 31985088, Thermo Fisher) were seeded into each well of a 384 well white opaque plate (Corning 3570) and incubated at 37° C. and 5% CO2. Twenty microliters of 2× test compounds in OptiMem were added to cells after 4 hours of incubation. Final assay conditions comprised 20,000 cells per well in 1% DMSO with test compound concentrations ranging from 50 uM to 0 uM. After 20 hours incubation at 37° C. and 5% CO2, luciferase activity was determined using ONE-Glo Luciferase Assay Reagent (E6110, Promega) following the manufacture's recommended procedure. Briefly, 40 uL of ONE-Glo luciferase reagents were added to each well and luciferase signals were measured using an Envision 2102 Multilabel Reader. Percentage maximum activity in each test well was calculated based on DMSO (maximum activity) and no cell control wells (baseline activity). The IC50 values of the test compounds were determined from compound dose response curves fitted using a standard four parameter fit equation.

[1] = target: T2, Histidine tagged HIF-2α protein containing PAS-B domain (240-350) (Homo sapiens, UniProt Q99814); assay: HIF-2α Scintillation Proximity Assay (SPA); format: binding
T2 construct: Histidine tagged HIF-2α protein containing PAS-B domain (240-350) was prepared and purified in house; made in house
T2 sequence (Q99814 240-350): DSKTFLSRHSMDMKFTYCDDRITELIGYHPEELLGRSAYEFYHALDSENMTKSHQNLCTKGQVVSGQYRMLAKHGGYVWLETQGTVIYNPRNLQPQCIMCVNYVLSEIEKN
Experimental: Tritium labeled compound N-(3-chlorophenyl)-4-nitro-2,1,3-benzoxadiazol-5-amine was obtained from American Radiolabeled Chemicals Inc. and copper chelate PVT SPA beads were from PerkinElmer (Cat #RPNQ0095). Histidine tagged HIF-2α protein containing PAS-B domain (240-350) was prepared and purified in house.
Compounds solubilized in DMSO were dispensed into a white 384-well polystyrene non-binding flat clear bottom plate (Greiner Bio-One, Cat #781903) using an HP D300 dispenser. Ten microliters of HIS-tagged HIF-2α protein in buffer (25 mM Tris-HCl, pH 7.4, 150 mM NaCl, 0.15% BSA and 0.001% Tween 20) was added to the compound wells and allowed to incubate for 1 hour at room temperature. Ten microliters of SPA bead mix were added to the wells and incubated for an additional 45 minutes, followed by 10 ul of ^3H-tracer solution. Final assay conditions comprised 50 nM HIF-2α protein, 25 nM radiolabeled tracer and 3 ug beads per well with compounds in 2% DMSO. The plate was read using a MicroBeta Microplate Counter (PerkinElmer) for luminescence detection. The IC50 values of the test compounds were determined from compound dose response curves fitted using a standard four parameter fit equation and are reported in Table 1.

[2] = HIF-Luc-786-0 cells, 20 hours incubation, luciferase activity, read-out: HIF-2α Luciferase Assay
[3] = 50 nM HIF-2α protein, 25 nM radiolabeled tracer, read-out: HIF-2α Scintillation Proximity Assay

T1 sequence (Q99814 whole entry): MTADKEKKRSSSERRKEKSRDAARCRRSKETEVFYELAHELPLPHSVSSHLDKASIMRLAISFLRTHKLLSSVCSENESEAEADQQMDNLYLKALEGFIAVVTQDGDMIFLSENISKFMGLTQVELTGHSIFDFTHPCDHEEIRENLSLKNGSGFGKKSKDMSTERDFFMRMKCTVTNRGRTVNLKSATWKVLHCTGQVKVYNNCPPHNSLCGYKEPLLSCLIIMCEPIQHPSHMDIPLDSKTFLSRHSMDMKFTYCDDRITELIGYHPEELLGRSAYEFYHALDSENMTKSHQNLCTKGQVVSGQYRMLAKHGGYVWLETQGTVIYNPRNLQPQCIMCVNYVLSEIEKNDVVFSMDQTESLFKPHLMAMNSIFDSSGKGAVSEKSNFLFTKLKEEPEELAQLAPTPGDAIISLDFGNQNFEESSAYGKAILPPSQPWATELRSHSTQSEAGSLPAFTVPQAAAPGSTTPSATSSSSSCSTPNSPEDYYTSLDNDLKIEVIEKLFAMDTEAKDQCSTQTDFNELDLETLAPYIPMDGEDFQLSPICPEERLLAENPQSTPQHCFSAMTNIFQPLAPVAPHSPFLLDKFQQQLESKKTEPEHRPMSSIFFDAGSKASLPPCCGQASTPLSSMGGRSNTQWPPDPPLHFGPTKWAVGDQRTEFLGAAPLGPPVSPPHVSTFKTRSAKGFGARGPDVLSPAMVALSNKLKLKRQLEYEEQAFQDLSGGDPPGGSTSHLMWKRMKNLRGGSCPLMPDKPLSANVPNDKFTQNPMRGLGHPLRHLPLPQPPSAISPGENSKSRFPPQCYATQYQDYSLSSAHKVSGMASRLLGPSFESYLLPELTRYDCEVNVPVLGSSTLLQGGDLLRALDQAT

pIC50 (HIF-2α; [2]) | pIC50 [1, 3] | SMILES | pIC50 [1] | pIC50 (HIF-2α)
5.00 to 6.00 |  | CS(=O)(=O)c1ccc(Nc2cc(F)cc(C#N)c2)c2cn[nH]c12 [Example 1, 3-Fluoro-5-[(7-methanesulfonyl-1H-indazol-4-yl)amino]benzonitrile] |  | 
5.00 to 6.00 | < 5.00 | CS(=O)(=O)c1ccc(Nc2cc(F)cc(C#N)c2)c2c(F)n[nH]c12 [Example 2, 3-Fluoro-5-[(3-fluoro-7-methanesulfonyl-1H-indazol-4-yl)amino]benzonitrile] |  | 
< 5.00 |  | CS(=O)(=O)c1ccc(Oc2cc(F)cc(C#N)c2)c2cn[nH]c12 [Example 3, 3-Fluoro-5-[(7-methanesulfonyl-1H-indazol-4-yl)oxy]benzonitrile] |  | 
< 5.00 | < 5.00 | CS(=O)(=O)c1ccc(Oc2ccc(F)cc2F)c2cn[nH]c12 [Example 4, 4-(2,4-Difluorophenoxy)-7-methanesulfonyl-1H-indazole] |  | 
5.00 to 6.00 |  | CS(=O)(=O)c1ccc(Oc2cccc(Cl)c2)c2cn[nH]c12 [Example 5, 4-(3-Chlorophenoxy)-7-methanesulfonyl-1H-indazole] |  | 
5.00 to 6.00 |  | CS(=O)(=O)c1ccc(Oc2ccc(Cl)c(Cl)c2)c2cn[nH]c12 [Example 6, 4-(3,4-Dichlorophenoxy)-7-methanesulfonyl-1H-indazole] |  | 
< 5.00 | < 5.00 | CS(=O)(=O)c1ccc(Oc2cc(F)cc(Cl)c2)c2cn[nH]c12 [Example 7, 4-(3-Chloro-5-fluorophenoxy)-7-methanesulfonyl-1H-indazole] |  | 
5.00 to 6.00 | < 5.00 | CS(=O)(=O)c1ccc(Oc2cc(F)cc(C#N)c2)c2c(Cl)n[nH]c12 [Example 8, 3-[(3-Chloro-7-methanesulfonyl-1H-indazol-4-yl)oxy]-5-fluorobenzonitrile] |  | 
5.00 to 6.00 | < 5.00 | CS(=O)(=O)c1ccc(Oc2cc(F)cc(Cl)c2)c2c(Cl)n[nH]c12 [Example 9, 3-Chloro-4-(3-chloro-5-fluorophenoxy)-7-methanesulfonyl-1H-indazole] |  | 
5.00 to 6.00 | < 5.00 | CS(=O)(=O)c1ccc(Oc2cc(F)cc(C#N)c2)c2c(C#N)n[nH]c12 [Example 10, 4-(3-Cyano-5-fluorophenoxy)-7-methanesulfonyl-1H-indazole-3-carbonitrile] |  | 
5.00 to 6.00 | < 5.00 | CS(=O)(=O)c1ccc(Oc2cc(F)cc(C#N)c2)c2c(CO)n[nH]c12 [Example 11, 3-Fluoro-5-{[3-(hydroxymethyl)-7-methanesulfonyl-1H-indazol-4-yl]oxy}benzonitrile] |  | 
5.00 to 6.00 | 5.00 to 6.00 | N#Cc1cc(F)cc(Oc2ccc(S(=O)(=O)C(F)F)c3[nH]ncc23)c1 [Example 12, 5-[7-(Difluoromethylsulfonyl)-1H-indazol-4-yloxy]-3-fluorobenzonitrile] |  | 
5.00 to 6.00 | < 5.00 | N#Cc1cc(F)cc(Oc2ccc(S(=O)(=O)C(F)F)c3[nH]nc(I)c23)c1 [Example 13, 5-[7-(Difluoromethylsulfonyl)-3-iodo-1H-indazol-4-yloxy]-3-fluorobenzonitrile] |  | 
5.00 to 6.00 | 5.00 to 6.00 | N#Cc1cc(F)cc(Nc2ccc(C(F)(F)F)c3[nH]ncc23)c1 [Example 14, 3-Fluoro-5-[7-(trifluoromethyl)-1H-indazol-4-ylamino]benzonitrile] |  | 
 |  | N#Cc1cc(F)cc(Oc2ccc(S(=O)(=O)C(F)(F)F)c3[nH]ncc23)c1 [Example 15, 3-Fluoro-5-[(7-trifluoromethanesulfonyl-1H-indazol-4-yl)oxy]benzonitrile] | > 6.00 | > 6.00
5.00 to 6.00 | < 5.00 | O=S(=O)(c1ccc(Oc2ccccc2)c2cn[nH]c12)C(F)(F)F [Example 16, 4-Phenoxy-7-(trifluoromethylsulfonyl)-1H-indazole] |  | 
5.00 to 6.00 | < 5.00 | O=S(=O)(c1ccc(Oc2ccc(Cl)cc2)c2cn[nH]c12)C(F)(F)F [Example 17, 4-(p-Chlorophenoxy)-7-(trifluoromethylsulfonyl)-1H-indazole] |  | 

pIC50 (HIF-2α; [2]) | pIC50 [1, 3] | SMILES | pIC50 [1] | pIC50 (HIF-2α)
5.00 to 6.00 | < 5.00 | O=S(=O)(c1ccc(Oc2ccc(F)cc2)c2cn[nH]c12)C(F)(F)F [Example 18, 4-(p-Fluorophenoxy)-7-(trifluoromethylsulfonyl)-1H-indazole] |  | 
5.00 to 6.00 | < 5.00 | N#Cc1ccc(Oc2ccc(S(=O)(=O)C(F)(F)F)c3[nH]ncc23)cc1 [Example 19, p[7-(Trifluoromethylsulfonyl)-1H-indazol-4-yloxy]benzonitrile] |  | 
< 5.00 | < 5.00 | COc1ccc(Oc2ccc(S(=O)(=O)C(F)(F)F)c3[nH]ncc23)cc1 [Example 20, 4-(p-Methoxyphenoxy)-7-(trifluoromethylsulfonyl)-1H-indazole] |  | 
< 5.00 | < 5.00 | Cc1cncc(Oc2ccc(S(=O)(=O)C(F)(F)F)c3[nH]ncc23)n1 [Example 21, 4-[(6-Methylpyrazin-2-yl)oxy]-7-trifluoromethanesulfonyl-1H-indazole] |  | 
 | 5.00 to 6.00 | N#Cc1cc(C#N)cc(Oc2ccc(S(=O)(=O)C(F)(F)F)c3[nH]ncc23)c1 [Example 22, 5-[(7-Trifluoromethanesulfonyl-1H-indazol-4-yl)oxy]benzene-1,3-dicarbonitrile] |  | 
5.00 to 6.00 | 5.00 to 6.00 | O=S(=O)(c1ccc(Oc2cncc(Cl)c2)c2cn[nH]c12)C(F)(F)F [Example 23, 4-[(5-Chloropyridin-3-yl)oxy]-7-trifluoromethanesulfonyl-1H-indazole] |  | 
5.00 to 6.00 | 5.00 to 6.00 | N#Cc1cncc(Oc2ccc(S(=O)(=O)C(F)(F)F)c3[nH]ncc23)c1 [Example 24, 5-[(7-Trifluoromethanesulfonyl-1H-indazol-4-yl)oxy]pyridine-3-carbonitrile] |  | 
> 6.00 | > 6.00 | O=S(=O)(c1ccc(Oc2cc(F)cc(F)c2)c2cn[nH]c12)C(F)(F)F [Example 25, 4-(3,5-Difluorophenoxy)-7-trifluoromethanesulfonyl-1H-indazole] |  | 
5.00 to 6.00 | 5.00 to 6.00 | Fc1cc(F)cc(Oc2ccc(C(F)(F)F)c3[nH]ncc23)c1 [Example 26, 4-(3,5-Difluorophenoxy)-7-(trifluoromethyl)-1H-indazole] |  | 
5.00 to 6.00 | > 6.00 | N#Cc1cc(Cl)cc(Oc2ccc(S(=O)(=O)C(F)(F)F)c3[nH]ncc23)c1 [Example 27, 3-Chloro-5-[[7-(trifluoromethylsulfonyl)-1H-indazol-4-yl]oxy]benzonitrile] |  | 
5.00 to 6.00 |  | N#Cc1ccc(Cl)c(Oc2ccc(S(=O)(=O)C(F)(F)F)c3[nH]ncc23)c1 [Example 43, 4-Chloro-3-[(7-trifluoromethanesulfonyl-1H-indazol-4-yl)oxy]benzonitrile] |  | 
< 5.00 |  | N#Cc1ccc(F)c(Oc2ccc(S(=O)(=O)C(F)(F)F)c3[nH]ncc23)c1 [Example 44, 4-Fluoro-3-[(7-trifluoromethanesulfonyl-1H-indazol-4-yl)oxy]benzonitrile] |  | 
< 5.00 |  | O=S(=O)(c1ccc(N2CCCc3cc(F)cc(F)c32)c2cn[nH]c12)C(F)(F)F [Example 49, 6,8-Difluoro-1-(7-trifluoromethanesulfonyl-1H-indazol-4-yl)-1,2,3,4-tetrahydroquinoline] |  | 
5.00 to 6.00 |  | N#Cc1cc(F)cc(Nc2cc(Cl)cc3[nH]ncc23)c1 [Example 65, 3-[(6-Chloro-1H-indazol-4-yl)amino]-5-florobenzonitrile] |  | 
5.00 to 6.00 |  | N#Cc1cc(F)cc(Nc2cncc3[nH]ncc23)c1 [Example 66, 3-Fluoro-5-({1H-pyrazolo[3,4-c]pyridin-4-yl}amino)benzonitrile] |  | 
5.00 to 6.00 |  | N#Cc1cc(F)cc(Nc2ncnc3[nH]ncc23)c1 [Example 67, 3-Fluoro-5-({1H-pyrazolo[3,4-d]pyrimidin-4-yl}amino)benzonitrile] |  | 
